From ChEMBL document CHEMBL1148009, “Synthesis of amphiphilic galactopyranosyl diamines and amino alcohols as antitubercular agents” (2007)
Converted amounts (≈) assume the structure as drawn.

Test system: Mycobacterium tuberculosis
Assay: Antitubercular activity against Mycobacterium tuberculosis H37Rv
Type: functional

SMILES	MIC
CCCCCCCCCCCCCCCC(=O)NCCCN(C[C@H]1O[C@@H]2OC(C)(C)O[C@@H]2[C@H]2OC(C)(C)O[C@H]21)C(=O)CCCCCCCCCCCCCCC	> 50 µg/mL
CCCCCCCCCCCCCCCCCC(=O)N(CCO)C[C@H]1O[C@@H]2OC(C)(C)O[C@@H]2[C@H]2OC(C)(C)O[C@H]21	25 µg/mL (≈ 43.9 µM)
CC1(C)O[C@H]2[C@@H](O1)[C@@H](CNCCO)O[C@@H]1OC(C)(C)O[C@@H]12	> 50 µg/mL
CCCCCCCCCCCCCCCCCC(=O)NCCN(C[C@H]1OC(O)[C@H](O)[C@@H](O)[C@H]1O)C(=O)CCCCCCCCCCCCCCCCC (stereo partly specified)	> 50 µg/mL
CC1(C)O[C@H]2[C@@H](O1)[C@@H](CNCCCN)O[C@@H]1OC(C)(C)O[C@@H]12	> 50 µg/mL
CO[C@H]1/C=C/O[C@@]2(C)Oc3c(C)c(O)c4c(O)c(c(/C=N/N5CCN(C)CC5)c(O)c4c3C2=O)NC(=O)/C(C)=C\C=C\[C@H](C)[C@H](O)[C@@H](C)[C@@H](O)[C@@H](C)[C@H](OC(C)=O)[C@@H]1C [RIFAMPIN]	1 µg/mL (≈ 1.22 µM)
CCCCCCCCCCCCCCCCCC(=O)NCCCN(C[C@H]1OC(O)[C@H](O)[C@@H](O)[C@H]1O)C(=O)CCCCCCCCCCCCCCCCC (stereo partly specified)	> 50 µg/mL
CCCCCCCCCCCCCCCCCC(=O)NCCNC[C@H]1O[C@@H]2OC(C)(C)O[C@@H]2[C@H]2OC(C)(C)O[C@H]21	< 3.12 µg/mL
CCCCCCCCCCCCCCCCCC(=O)NCCCNC[C@H]1O[C@@H]2OC(C)(C)O[C@@H]2[C@H]2OC(C)(C)O[C@H]21	12.5 µg/mL (≈ 21.4 µM)
CCCCCCCCCCCCCCCC(=O)NCCN(C[C@H]1O[C@@H]2OC(C)(C)O[C@@H]2[C@H]2OC(C)(C)O[C@H]21)C(=O)CCCCCCCCCCCCCCC	> 50 µg/mL
CCCCCCCCCCCCCCCCCC(=O)OCCN(C[C@H]1O[C@@H]2OC(C)(C)O[C@@H]2[C@H]2OC(C)(C)O[C@H]21)C(=O)CCCCCCCCCCCCCCCCC	> 50 µg/mL
